Measured values reported in the supplement of paper PMC10307832.

Experiments:
Assay in all cases: relative viability (nuclei count vs DMSO), 5 days (fraction); higher = more cells survive
[1] = compound: C1=CC2=C(C=C(C(=C2N=C1)O)N=NC3=CC4=C(C=C3)C=C(C=C4)S(=O)(=O)O)S(=O)(=O)O + Nc1ncn([C@H]2C[C@H](O)[C@@H](CO)O2)c(=O)n1 [Decitabine] (partner 2 µM)
Summary of the method: (§1)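 Relative viability divides the nuclei count in treated wells by that in vehicle wells. Lung cancer cell lines were seeded in 1536-well plates, dosed by pin tool the next day, and fixed and stained after 5 days in one step with final 0.05% Triton X-100, 1% formaldehyde and 1 ug/ml Hoechst. Dosing was a single drug or a fixed anchor-drug dose plus five library-drug doses (not always all listed) in √10 steps, and values are medians of duplicate plates imaged at 4×.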

[2] = compound: C1=CC2=C(C=C(C(=C2N=C1)O)N=NC3=CC4=C(C=C3)C=C(C=C4)S(=O)(=O)O)S(=O)(=O)O + O=C(CCCCCCC(=O)Nc1ccccc1)NO [Vorinostat] (partner 1 µM)
Summary of the method: as §1

[3] = compound: O=C(NC1CCNCC1)c1n[nH]cc1NC(=O)c1c(Cl)cccc1Cl [AT-7519] + Cc1nc(NC(=O)N2CCC[C@H]2C(N)=O)sc1-c1ccnc(C(C)(C)C(F)(F)F)c1 [Alpelisib] (partner 2 µM)
Summary of the method: as §1

[4] = compound: O=C(NC1CCNCC1)c1n[nH]cc1NC(=O)c1c(Cl)cccc1Cl [AT-7519] + CS(=O)(=O)CCNCc1ccc(-c2ccc3ncnc(Nc4ccc(OCc5cccc(F)c5)c(Cl)c4)c3c2)o1 [Lapatinib] (partner 2 µM)
Summary of the method: as §1

Cell Line	relative viability ([1]; first compound 0.08 µM)	relative viability ([1]; first compound 0.253 µM)	relative viability ([1]; first compound 0.8 µM)	relative viability ([1]; first compound 2.53 µM)	relative viability ([1]; first compound 8 µM)	relative viability ([2]; first compound 0.08 µM)	relative viability ([2]; first compound 0.253 µM)	relative viability ([2]; first compound 0.8 µM)	relative viability ([2]; first compound 2.53 µM)	relative viability ([2]; first compound 8 µM)	relative viability ([3]; first compound 0.01 µM)	relative viability ([3]; first compound 0.03162 µM)	relative viability ([3]; first compound 0.3162 µM)	relative viability ([3]; first compound 1 µM)	relative viability ([4]; first compound 0.01 µM)	relative viability ([4]; first compound 0.03162 µM)	relative viability ([4]; first compound 0.3162 µM)	relative viability ([4]; first compound 1 µM)
201T	0.887	0.848	0.873	0.87	0.845	0.997	1.04	0.961	1.08	0.942	0.972	1.05	1.02	1.09	1.06	1.03	1.07	1.06
A549	0.4	0.252	0.286	0.231	0.207	–	–	–	–	–	0.882	0.708	0.69	0.322	0.879	1.01	0.856	0.349
A-427	0.558	0.554	0.534	0.547	0.551	0.894	0.821	0.796	0.861	0.924	1.11	1.06	1.01	0.453	1.1	0.989	1.03	0.929
ABC-1	1.14	1.16	0.936	1.39	1.09	0.875	1.12	0.943	1.49	0.982	0.962	1.01	0.724	0.416	0.984	0.909	0.986	0.966
BEN	0.735	0.745	0.635	0.804	0.688	0.562	0.695	0.526	0.599	0.589	1.03	0.954	1.12	0.76	0.834	0.68	0.781	0.55
CAL-12T	–	–	–	–	–	0.916	0.571	0.668	0.752	0.725	1.27	1.02	0.534	0.13	–	0.538	0.386	0.186
COR-L23	0.495	0.448	0.421	0.508	0.407	0.484	0.396	0.418	0.449	0.599	0.987	0.746	0.348	0.119	1.14	0.786	0.325	0.121
COR-L 105	0.711	0.705	0.65	0.647	0.567	0.852	0.86	0.742	0.866	0.881	1.13	0.996	0.927	0.507	0.397	0.397	0.319	0.293
Calu-6	–	–	–	–	–	–	–	–	–	–	0.995	1.17	0.877	0.391	1.12	1.07	0.988	0.18
ChaGo-K-1	0.54	0.534	0.532	0.439	0.528	0.827	0.812	0.698	0.723	0.494	–	–	–	–	–	–	–	–
EBC-1	–	–	–	–	–	–	–	–	–	–	0.863	0.835	0.734	0.55	0.234	0.2	0.213	0.178
EKVX	0.334	0.366	0.366	0.325	0.263	0.757	0.694	0.643	0.76	0.656	0.836	0.86	0.76	0.745	0.203	0.198	0.186	0.172
EMC-BAC-2	1.03	0.991	0.953	1.05	0.98	0.377	0.458	0.467	0.441	0.45	0.716	0.699	0.782	0.746	0.866	0.85	0.889	0.886
EPLC-272H	0.415	0.372	0.37	0.438	0.375	0.453	0.358	0.306	0.876	0.491	0.905	0.957	0.885	0.856	0.979	0.913	0.652	1.07
H3255	0.652	0.635	0.58	0.655	0.585	0.84	0.828	0.803	0.846	0.754	0.712	0.678	0.833	0.519	0.282	0.232	0.294	0.212
HARA	0.69	0.584	0.52	0.519	0.563	0.631	0.383	0.565	0.493	0.551	0.836	0.72	0.816	0.541	0.804	0.622	0.604	0.681
HCC-15	0.723	0.689	0.637	0.625	0.596	0.818	0.857	0.779	0.826	0.827	0.959	0.905	0.763	0.406	0.891	0.828	0.692	0.5
HCC-44	0.935	0.932	0.93	1.04	0.949	1.22	1.08	1.08	1.11	0.995	0.835	0.835	0.769	0.572	0.984	1.05	1.1	0.979
HCC-78	0.796	0.671	0.756	0.708	0.589	0.437	0.471	0.458	0.437	0.434	0.142	0.286	0.305	0.283	0.837	0.79	1.08	0.878
HCC-366	0.299	0.307	0.347	0.357	0.358	0.442	0.463	0.392	0.338	0.328	0.362	0.347	0.514	0.228	0.868	1.08	0.797	0.243
